Target: T1, human GPR120 (Homo sapiens, UniProt Q5NUL3)
T1 construct: host or cells: HEK293 cells co-expressing Gqi5
T1 sequence (Q5NUL3 1-361): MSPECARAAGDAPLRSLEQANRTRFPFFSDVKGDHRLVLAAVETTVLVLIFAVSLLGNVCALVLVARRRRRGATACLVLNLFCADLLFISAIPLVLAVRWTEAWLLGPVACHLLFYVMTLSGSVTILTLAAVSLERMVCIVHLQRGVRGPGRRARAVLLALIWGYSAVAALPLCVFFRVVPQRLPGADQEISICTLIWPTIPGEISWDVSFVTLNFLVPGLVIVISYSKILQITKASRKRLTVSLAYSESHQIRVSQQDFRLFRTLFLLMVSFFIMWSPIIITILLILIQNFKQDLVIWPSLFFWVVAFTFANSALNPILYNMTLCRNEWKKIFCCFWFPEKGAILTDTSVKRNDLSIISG
Assay: Intracellular Ca2+ assay in human GPR120 stable cell line (HEK293 co-expressing Gqi5), Flexstation
Type: cell-based
Conditions: % activity at 5 μM compared to the maximal activity of GW9508 at 6.7 μM (=100%); human GPR120 cells, Ca2+ fluorescence
Description: Human GPR120 stable cell line was purchased from Multispan Inc (26219 Eden Landing Road, Hayward, Calif. 94545). This GPR120 cell line was generated in HEK293 cells co-expressing Gqi5. In this cell line, the Flag epitope tag (DYKDDDDK) was fused to the amino terminus of human GPR120 protein.
The concentration of intracellular Ca^2+ was measured as described below. Human GPR120 cells were plated in 96 well plates (Poly-D-Lysine coated black/clear Plate, Greiner Bio-One) at 70,000 cells per well and cultured overnight in conditions of 37° C. and 5% CO2. A Ca^2+assay dye stock solution was prepared by adding 10 mL of assay buffer (HBSS/20 mM HEPES, pH 7.4) to FLIPR Calcium 4 Assay Bulk Kit (Molecular Devices). The 10 mL of Ca^2+ assay dye solution was prepared by further diluting 0.5 mL of Ca^2+ assay dye stock solution with 10 mL of assay buffer. The medium of the cells was removed and immediately 100 μL of the Ca^2+ assay dye solution was dispensed into each well followed by incubation at 37° C. and 5% CO2 for 50 minutes to incorporate the Ca^2+ dye into the cells. The cell plate was then placed in the Flexstation (Molecular Devices) for 20 minutes at 37° C. Compounds were dissolved in 100% DMSO and diluted to desired concentrations with assay buffer and placed in the Flexstation simultaneously with the cell plate for 20 minute incubation at 37° C. prior to reading. Fluorescence intensity was measured immediately following compound addition (25 μL/well) on the Flexstation at an excitation wavelength of 485 nm and an emission wavelength of 525 with 515 nm auto cutoff. The resulting increase in fluorescence intensities corresponds to increases in intracellular Ca^2+ levels.
Compounds were dissolved in 100% DMSO to a concentration of 20 mM to provide stock solutions. To determine activity against human GPR120, compounds were added with human GPR120 stably expressing cells (described above), at eight desired concentrations ranging from 0.00001 to 20 μM, in 96 well plates and fluorescence intensities were measured for 90 seconds with 2-second intervals. An EC50 value (concentration of the GPR120 agonist where 50% of the agonist's maximal activity is observed) was calculated using the changes (Max−Min) of fluorescence intensity.
To determine percent activity for a tested compound, the fluorescence intensity value obtained at a particular concentration were compared to the maximal fluorescence intensity value obtained for reference compound GW9508 (4-[[(3-phenoxyphenyl)methyl]amino]benzene propanoic acid; British Journal of Pharmacology 2006 148, 619-628) or the compound of Example 25. When GW9508 was used as the reference compound, the maximal activity of GW9508 at 6.7 μM was designated as 100% activity. When the compound of Example 25 was used as the reference compound, the maximal activity of the compound of Example 25 at 2.5 μM was designated as 100% activity. Typically, the GW9508 activity reached a maximum at a concentration of approximately 6.7 μM and typically the compound of Example 25 reached a maximum activity at approximately 2.5 μM.

Row | Compound | % Activity (GW9508 Reference Compound) [%]
1 | CC1(C)Cc2cc(Cl)cc(COc3c(F)cc(C4CC4C(=O)O)cc3F)c2O1 (racemic) [Example 35, 2-(4-((5-chloro-2,2-dimethyl-2,3-dihydrobenzofuran-7-yl)methoxy)-3,5-difluorophenyl)cyclopropanecarboxylic acid] | 60.11
2 | CC1(C)Cc2cc(F)cc(COc3c(F)cc(CC4CC4C(=O)O)cc3F)c2O1 (racemic) [Example 184, 2-(3,5-difluoro-4-((5-fluoro-2,2-dimethyl-2,3-dihydrobenzofuran-7-yl)methoxy)benzyl)cyclopropanecarboxylic acid] | 97.04
3 | CC1(C)Cc2cc(F)cc(COc3ccc(C4CC4C(=O)O)cc3)c2O1 (single isomer, unassigned) [Example 131A, 2-(4-((5-fluoro-2,2-dimethyl-2,3-dihydrobenzofuran-7-yl)methoxy)phenyl)cyclopropanecarboxylic acid] | 103.75
4 | CC1(C)Cc2cc(F)cc(COc3ccc(C4CC4C(=O)O)cc3)c2O1 (single isomer, unassigned) [Example 131B, 2-(4-((5-fluoro-2,2-dimethyl-2,3-dihydrobenzofuran-7-yl)methoxy)phenyl)cyclopropanecarboxylic acid] | 105.8
5 | CC1(C)Cc2cc(F)cc(COc3c(F)cc(CC4CC4C(=O)O)cc3F)c2O1 (single isomer, unassigned) [Example 184A, 2-(3,5-difluoro-4-((5-fluoro-2,2-dimethyl-2,3-dihydrobenzofuran-7-yl)methoxy)benzyl)cyclopropanecarboxylic acid] | 95.58
6 | CC1(C)Cc2cc(F)cc(COc3c(F)cc(CC4CC4C(=O)O)cc3F)c2O1 (single isomer, unassigned) [Example 184B, 2-(3,5-difluoro-4-((5-fluoro-2,2-dimethyl-2,3-dihydrobenzofuran-7-yl)methoxy)benzyl)cyclopropanecarboxylic acid] | 130.66
7 | CC(Cc1cc(F)c(OCc2cccc3c2OCC3)c(F)c1)C(=O)O (stereo not shown) [Example 3, 3-(4-((2,3-dihydrobenzofuran-7-yl)methoxy)-3,5-difluorophenyl)-2-methylpropanoic acid] | 123.7995
8 | CC1(C)Cc2cc(F)cc(COc3c(F)cc(C4CC4C(=O)O)cc3F)c2O1 (stereo not shown) [Example 19, 2-(3,5-difluoro-4-((5-fluoro-2,2-dimethyl-2,3-dihydrobenzofuran-7-yl)methoxy)phenyl)cyclopropanecarboxylic acid] | 125.5
9 | CC(Cc1cc(F)c(OCc2cccc3c2CC(C)(C)O3)c(F)c1)C(=O)O (stereo not shown) [Example 21, 3-(4-((2,2-dimethyl-2,3-dihydrobenzofuran-4-yl)methoxy)-3,5-difluorophenyl)-2-methylpropanoic acid] | 112.6
10 | CC1(C)Cc2c(COc3c(F)cc(C4CC4C(=O)O)cc3F)cccc2O1 (stereo not shown) [Example 22, 2-(4-((2,2-dimethyl-2,3-dihydrobenzofuran-4-yl)methoxy)-3,5-difluorophenyl)cyclopropanecarboxylic acid] | 126

More lines, now with the values ahead:

Row | % Activity (GW9508 Reference Compound) [%] | Compound
11 | 134.6745 | CC(Cc1cc(F)c(OCc2cccc3c2OC(C)(C)CC3)c(F)c1)C(=O)O (stereo not shown) [Example 2, 3-(4-((2,2-dimethylchroman-8-yl)methoxy)-3,5-difluorophenyl)-2-methylpropanoic acid]
12 | 110.8 | Cc1cc(COc2ccc(CC(C)C(=O)O)cc2)c2c(c1)CC(C)(C)O2 (stereo not shown) [Example 4, 2-methyl-3-(4-((2,2,5-trimethyl-2,3-dihydrobenzofuran-7-yl)methoxy)phenyl)propanoic acid]
13 | 149.2 | Cc1cc(COc2c(F)cc(CC(C)C(=O)O)cc2F)c2c(c1)CC(C)(C)O2 (stereo not shown) [Example 5, 3-(3,5-difluoro-4-((2,2,5-trimethyl-2,3-dihydrobenzofuran-7-yl)methoxy)phenyl)-2-methylpropanoic acid]
14 | 147.3 | Cc1cc(CC(C)C(=O)O)ccc1OCc1cc(F)cc2c1OC(C)(C)C2 (stereo not shown) [Example 6, 3-(4-((5-fluoro-2,2-dimethyl-2,3-dihydrobenzofuran-7-yl)methoxy)-3-methylphenyl)-2-methylpropanoic acid]
15 | 168.2 | COc1cc(CC(C)C(=O)O)ccc1OCc1cc(F)cc2c1OC(C)(C)C2 (stereo not shown) [Example 7, 3-(4-((5-fluoro-2,2-dimethyl-2,3-dihydrobenzofuran-7-yl)methoxy)-3-methoxyphenyl)-2-methylpropanoic acid]
16 | 135.3906 | CC(Cc1ccc(OCc2cc(F)cc3c2OC(C)(C)C3)c(F)c1)C(=O)O (stereo not shown) [Example 8, 3-(3-fluoro-4-((5-fluoro-2,2-dimethyl-2,3-dihydrobenzofuran-7-yl)methoxy)phenyl)-2-methylpropanoic acid]
17 | 112.8 | CC(Cc1ccc(OCc2cc(Cl)cc3c2OC(C)(C)C3)c(C(F)(F)F)c1)C(=O)O (stereo not shown) [Example 9, 3-(4-((5-chloro-2,2-dimethyl-2,3-dihydrobenzofuran-7-yl)methoxy)-3-(trifluoromethyl)phenyl)-2-methylpropanoic acid]
18 | 124.2119 | Cc1cc(CC(C)C(=O)O)ccc1OCc1cc(Cl)cc2c1OC(C)(C)C2 (stereo not shown) [Example 11, 3-(4-((5-chloro-2,2-dimethyl-2,3-dihydrobenzofuran-7-yl)methoxy)-3-methylphenyl)-2-methylpropanoic acid]
19 | 116.1354 | CC(Cc1ccc(OCc2cc(Cl)cc3c2OC(C)(C)C3)c(Cl)c1)C(=O)O (stereo not shown) [Example 12, 3-(3-chloro-4-((5-chloro-2,2-dimethyl-2,3-dihydrobenzofuran-7-yl)methoxy)phenyl)-2-methylpropanoic acid]
20 | 84.49 | CC(Cc1cc(Cl)c(OCc2cc(Cl)cc3c2OC(C)(C)C3)c(Cl)c1)C(=O)O (stereo not shown) [Example 14, 3-(3,5-dichloro-4-((5-chloro-2,2-dimethyl-2,3-dihydrobenzofuran-7-yl)methoxy)phenyl)-2-methylpropanoic acid]
21 | 109.2 | COc1cc(CC(C)C(=O)O)ccc1OCc1cc(Cl)cc2c1OC(C)(C)C2 (stereo not shown) [Example 15, 3-(4-((5-chloro-2,2-dimethyl-2,3-dihydrobenzofuran-7-yl)methoxy)-3-methoxyphenyl)-2-methylpropanoic acid]
22 | 110.8294 | CC(Cc1ccc(OCc2cc(F)cc3c2OC(C)(C)C3)cc1)C(=O)O (stereo not shown) [Example 16, 3-(4-((5-fluoro-2,2-dimethyl-2,3-dihydrobenzofuran-7-yl)methoxy)phenyl)-2-methylpropanoic acid]
23 | 130.0714 | CC(Cc1cc(F)c(OCc2cc(F)cc3c2OC(C)(C)C3)c(F)c1)C(=O)O (stereo not shown) [Example 18, 3-(3,5-difluoro-4-((5-fluoro-2,2-dimethyl-2,3-dihydrobenzofuran-7-yl)methoxy)phenyl)-2-methylpropanoic acid]
24 | 112.7429 | CC(Cc1cc(F)c(OCc2cccc3c2OC(C)(C)C3)c(F)c1)C(=O)O (stereo not shown) [Example 23, 3-(4-((2,2-dimethyl-2,3-dihydrobenzofuran-7-yl)methoxy)-3,5-difluorophenyl)-2-methylpropanoic acid]

Same assay, conditions: human GPR120 cells, Ca2+ fluorescence; reference compounds, typical value

Row | Compound | concentration at which activity reached a maximum
25 | 4-[[(3-phenoxyphenyl)methyl]amino]benzene propanoic acid [GW9508, reference compound] | approximately 6.7 μM
